Article PMC8976073 (Nature Communications, 2022)
Changes are numbered by the printed parent chain.

Experiments:
Assay in all cases: Competition binding: inhibition of WK(FITC)YMVm binding to FPR2 (wild type and mutants), HEK293F cells
FPR2 [1] = biological target: T1, FPR2 (Homo sapiens, UniProt P25090, S211L); settings: FPR2 Construct 2, mean ± SEM
T1 construct: expressed in transfected cells; host or cells: HEK293F cells, pTT5 vector
Protocol: (§1) The genes of wild-type FPR1 and FPR2 and mutants with a Flag tag at the N termini were cloned into pTT5 vector (Invitrogen) and expressed in HEK293F cells (Invitrogen). Cells were harvested 48 h post transfection with 1 μg ml^−1 plasmid. Cell-surface expression of the receptors was measured by mixing 10 μl cells with 15 μl of TBS buffer supplemented with 4% BSA, 20% (v/v) viability-staining solution 7-AAD (Invitrogen, Cat#00-6993-50), and 0.1% (v/v) anti-FLAG M2-FITC antibody (Sigma, Cat#F4049) at 4 °C for 20 min. After incubation, 175 μl of TBS buffer was added and the fluorescent signal was measured using a flow-cytometry reader (Guava easyCyte HT, Millipore). Then, the cells were washed and resuspended to a final concentration of 1 × 10^6 cells per ml in Hanks’ Balanced Salt Solution (HBSS) buffer supplemented with 0.5% bovine serum albumin (BSA) and 20 mM HEPES, pH 7.4.
(§2) The mean fluorescent intensity of each well was then read by the FCM reader. Total binding and nonspecific binding were measured in the absence and presence of the unlabeled ligand (200 μM WKYMVm), respectively. […] Mean fluorescent-intensity values were measured by flow cytometry. Data were analyzed using Prism 8.0 (GraphPad software).

FPR2 [2] = biological target: T2, FPR2 (Homo sapiens, UniProt P25090, M85K); settings: FPR2 M85K, mean ± SEM
T2 construct: expressed in transfected cells; host or cells: HEK293F cells, pTT5 vector
T2 sequence (P25090 1-351 M85K): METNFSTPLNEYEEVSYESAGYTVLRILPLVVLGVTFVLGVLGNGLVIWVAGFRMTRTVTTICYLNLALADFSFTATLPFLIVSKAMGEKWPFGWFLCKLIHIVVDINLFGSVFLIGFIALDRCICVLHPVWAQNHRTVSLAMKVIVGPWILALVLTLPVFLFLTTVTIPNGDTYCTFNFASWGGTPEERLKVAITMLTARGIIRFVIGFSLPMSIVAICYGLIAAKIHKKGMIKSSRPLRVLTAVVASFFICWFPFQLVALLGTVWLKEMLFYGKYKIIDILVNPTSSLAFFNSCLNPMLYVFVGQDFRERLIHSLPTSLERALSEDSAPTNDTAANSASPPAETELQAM
Protocol: as §1, §2

FPR2 [3] = biological target: T3, FPR2 (Homo sapiens, UniProt P25090, E89A); settings: FPR2 E89A, mean ± SEM
T3 construct: expressed in transfected cells; host or cells: HEK293F cells, pTT5 vector
T3 sequence (P25090 1-351 E89A): T2 sequence (P25090 1-351 M85K) with K85M, E89A
Protocol: as §1, §2

FPR2 [4] = biological target: T4, FPR2 (Homo sapiens, UniProt P25090, L272W); settings: FPR2 L272W, mean ± SEM
T4 construct: expressed in transfected cells; host or cells: HEK293F cells, pTT5 vector
T4 sequence (P25090 1-351 L272W): T2 sequence (P25090 1-351 M85K) with K85M, L272W
Protocol: as §1, §2

FPR2 [5] = biological target: T5, FPR2 (Homo sapiens, UniProt P25090, E89G); settings: FPR2 E89G, mean ± SEM
T5 construct: expressed in transfected cells; host or cells: HEK293F cells, pTT5 vector
T5 sequence (P25090 1-351 E89G): T2 sequence (P25090 1-351 M85K) with K85M, E89G
Protocol: as §1, §2

FPR2 [6] = biological target: T6, FPR2 (Homo sapiens, UniProt P25090, L198W); settings: FPR2 L198W, mean ± SEM
T6 construct: expressed in transfected cells; host or cells: HEK293F cells, pTT5 vector
T6 sequence (P25090 1-351 L198W): T2 sequence (P25090 1-351 M85K) with K85M, L198W
Protocol: as §1, §2

T1 sequence (P25090 with tags, fused parts or gaps S211L): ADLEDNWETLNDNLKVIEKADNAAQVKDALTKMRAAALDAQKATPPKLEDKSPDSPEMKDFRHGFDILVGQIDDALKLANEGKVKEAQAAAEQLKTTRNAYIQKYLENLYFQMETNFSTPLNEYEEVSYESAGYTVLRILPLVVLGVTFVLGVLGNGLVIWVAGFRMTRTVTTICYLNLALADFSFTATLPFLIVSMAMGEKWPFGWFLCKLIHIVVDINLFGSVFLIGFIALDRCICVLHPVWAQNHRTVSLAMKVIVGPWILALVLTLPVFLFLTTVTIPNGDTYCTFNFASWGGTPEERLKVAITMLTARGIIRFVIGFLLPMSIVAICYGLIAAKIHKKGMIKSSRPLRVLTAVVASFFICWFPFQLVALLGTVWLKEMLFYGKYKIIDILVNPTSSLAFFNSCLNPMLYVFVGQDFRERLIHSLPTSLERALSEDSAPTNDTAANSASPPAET

SMILES: CC[C@H](C)[C@H](NC(=O)[C@H](CCC(=O)O)NC(=O)[C@H](CO)NC(=O)[C@@H](NC(=O)[C@H](CC(C)C)NC(=O)[C@H](CC(C)C)NC(=O)[C@H](CC(C)C)NC(=O)[C@H](CC(C)C)NC(=O)[C@H](CS)NC(=O)[C@H](CO)NC(=O)[C@H](Cc1ccccc1)NC(=O)CNC(=O)[C@H](CCCNC(=N)N)NC(=O)[C@@H]1CCCN1C(=O)[C@H](C)NC(=O)[C@H](CCSC)NC=O)[C@@H](C)O)C(=O)N[C@@H](CC(=O)O)C(=O)N[C@@H](CC(C)C)C(=O)N1CCC[C@H]1C(=O)N[C@H](C(=O)N[C@@H](CCCCN)C(=O)N[C@@H](CCCNC(=N)N)C(=O)N[C@@H](CCCNC(=N)N)C(=O)N[C@@H](C)C(=O)O)C(C)C [fHN, N-formyl humanin]
- Ki (FPR2 [1]): 525 nM
- Ki (FPR2 [2]): 309 nM
- Ki (FPR2 [3]): 2240 nM
- Ki (FPR2 [4]): 479 nM
- Ki (FPR2 [5]): 575 nM
- Ki (FPR2 [6]): 646 nM
